In US20240209001A1, “HETEROCYCLIC DERIVATIVES AS JANUS KINASE INHIBITORS” (CHIESI FARMACEUTICI S.P. A., priority 2021, published 2024):

Assays:
TYK2 = TYK2 (Homo sapiens (Human), UniProt P29597); experiment: Biochemical potency on Tyk2, TR-FRET LANCE Ultra kinase assay (compounds 1-92); details: ATP at Km, read-out: Tyk2 inhibitory activity (pIC50 class) (converted)
Summary of the method: (§1)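 TR-FRET (LANCE Ultra) phosphorylation of ULight-JAK-1 peptide, ATP at Km: JAK1/JAK2/JAK3/TYK2 peptide 30/50/20/10 nM, ATP 20/0.7/0.2/12 μM, enzyme 0.15/0.083/0.025/0.144 ng/μL. 11-point 5-fold series from 20 μM; 1.5 h RT, EDTA stop, Eu-anti-pTyr detection 1 h; IC50 by variable-slope fit.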

JAK 3 = JAK 3 (Homo sapiens (Human), UniProt P52333); experiment: Biochemical potency on JAK3, TR-FRET LANCE Ultra kinase assay (compounds 1-92); details: ATP at Km, read-out: JAK3 inhibitory activity (pIC50 class) (converted)
JAK 3, sequence (P52333 whole entry): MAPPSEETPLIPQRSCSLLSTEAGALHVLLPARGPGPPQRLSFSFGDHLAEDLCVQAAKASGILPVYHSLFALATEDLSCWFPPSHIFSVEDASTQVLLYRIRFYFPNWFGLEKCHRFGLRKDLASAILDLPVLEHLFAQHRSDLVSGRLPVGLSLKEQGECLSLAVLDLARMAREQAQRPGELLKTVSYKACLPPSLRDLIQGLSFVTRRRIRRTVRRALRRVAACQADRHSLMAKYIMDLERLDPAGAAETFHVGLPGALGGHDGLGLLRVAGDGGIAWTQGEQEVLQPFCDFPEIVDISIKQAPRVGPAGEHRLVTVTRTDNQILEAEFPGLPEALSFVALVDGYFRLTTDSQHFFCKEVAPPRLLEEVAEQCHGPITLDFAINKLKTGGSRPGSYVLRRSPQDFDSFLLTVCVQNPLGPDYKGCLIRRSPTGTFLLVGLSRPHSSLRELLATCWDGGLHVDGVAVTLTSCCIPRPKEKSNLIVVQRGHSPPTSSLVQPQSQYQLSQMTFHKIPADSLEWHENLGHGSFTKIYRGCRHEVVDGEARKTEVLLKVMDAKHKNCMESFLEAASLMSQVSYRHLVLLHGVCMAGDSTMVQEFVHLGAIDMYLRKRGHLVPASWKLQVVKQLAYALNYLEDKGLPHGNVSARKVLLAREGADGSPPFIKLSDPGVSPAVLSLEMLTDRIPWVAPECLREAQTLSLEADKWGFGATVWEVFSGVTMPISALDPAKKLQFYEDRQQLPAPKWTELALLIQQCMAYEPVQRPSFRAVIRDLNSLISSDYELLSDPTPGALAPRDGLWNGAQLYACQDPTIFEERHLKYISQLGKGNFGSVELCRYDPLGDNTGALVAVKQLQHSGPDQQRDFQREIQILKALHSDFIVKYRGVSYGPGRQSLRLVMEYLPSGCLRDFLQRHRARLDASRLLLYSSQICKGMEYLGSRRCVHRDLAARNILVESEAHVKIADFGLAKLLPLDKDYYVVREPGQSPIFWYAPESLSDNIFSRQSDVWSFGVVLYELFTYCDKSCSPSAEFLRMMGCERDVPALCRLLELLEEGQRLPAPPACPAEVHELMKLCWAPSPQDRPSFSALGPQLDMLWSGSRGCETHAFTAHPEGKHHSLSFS
Summary of the method: as §1

JAK 1 = JAK 1 (Homo sapiens (Human), UniProt P23458); experiment: Biochemical potency on JAK1, TR-FRET LANCE Ultra kinase assay (compounds 1-92); details: ATP at Km, read-out: JAK1 inhibitory activity (pIC50 class) (converted)
JAK 1, sequence (P23458 whole entry): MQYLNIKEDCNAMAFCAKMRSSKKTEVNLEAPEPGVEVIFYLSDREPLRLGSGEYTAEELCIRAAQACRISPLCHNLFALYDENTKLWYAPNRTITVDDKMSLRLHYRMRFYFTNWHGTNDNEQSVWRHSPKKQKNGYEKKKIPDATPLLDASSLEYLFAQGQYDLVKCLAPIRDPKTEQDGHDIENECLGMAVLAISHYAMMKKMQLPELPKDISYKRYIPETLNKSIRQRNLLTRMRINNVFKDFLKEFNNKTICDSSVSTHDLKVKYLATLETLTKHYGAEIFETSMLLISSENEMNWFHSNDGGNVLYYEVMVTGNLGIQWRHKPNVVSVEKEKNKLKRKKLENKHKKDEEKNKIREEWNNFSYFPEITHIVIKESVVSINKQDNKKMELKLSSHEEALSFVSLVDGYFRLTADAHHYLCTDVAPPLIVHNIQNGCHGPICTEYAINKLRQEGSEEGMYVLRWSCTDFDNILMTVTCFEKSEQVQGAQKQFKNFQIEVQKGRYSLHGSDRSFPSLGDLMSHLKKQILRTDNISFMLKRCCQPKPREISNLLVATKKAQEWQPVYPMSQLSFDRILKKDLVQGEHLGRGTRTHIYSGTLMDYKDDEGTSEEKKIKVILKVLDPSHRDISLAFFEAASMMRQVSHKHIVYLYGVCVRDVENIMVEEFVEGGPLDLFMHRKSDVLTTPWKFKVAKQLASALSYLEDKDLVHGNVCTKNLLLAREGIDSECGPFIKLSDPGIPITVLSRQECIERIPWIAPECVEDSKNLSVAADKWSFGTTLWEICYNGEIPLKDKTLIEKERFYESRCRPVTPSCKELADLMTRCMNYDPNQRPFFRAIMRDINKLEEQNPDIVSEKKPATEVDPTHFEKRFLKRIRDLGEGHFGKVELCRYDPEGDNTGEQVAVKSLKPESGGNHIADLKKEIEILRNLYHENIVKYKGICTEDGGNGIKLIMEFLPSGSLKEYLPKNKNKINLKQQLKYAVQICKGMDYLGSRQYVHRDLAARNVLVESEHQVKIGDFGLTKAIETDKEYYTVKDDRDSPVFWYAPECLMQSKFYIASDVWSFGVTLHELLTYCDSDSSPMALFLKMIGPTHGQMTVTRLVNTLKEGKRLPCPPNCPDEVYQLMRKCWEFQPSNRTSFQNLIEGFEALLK
Summary of the method: as §1

JAK 2 = JAK 2 (Homo sapiens (Human), UniProt O60674); experiment: Biochemical potency on JAK2, TR-FRET LANCE Ultra kinase assay (compounds 1-92); details: ATP at Km, read-out: JAK2 inhibitory activity (pIC50 class) (converted)
JAK 2, sequence (O60674 whole entry): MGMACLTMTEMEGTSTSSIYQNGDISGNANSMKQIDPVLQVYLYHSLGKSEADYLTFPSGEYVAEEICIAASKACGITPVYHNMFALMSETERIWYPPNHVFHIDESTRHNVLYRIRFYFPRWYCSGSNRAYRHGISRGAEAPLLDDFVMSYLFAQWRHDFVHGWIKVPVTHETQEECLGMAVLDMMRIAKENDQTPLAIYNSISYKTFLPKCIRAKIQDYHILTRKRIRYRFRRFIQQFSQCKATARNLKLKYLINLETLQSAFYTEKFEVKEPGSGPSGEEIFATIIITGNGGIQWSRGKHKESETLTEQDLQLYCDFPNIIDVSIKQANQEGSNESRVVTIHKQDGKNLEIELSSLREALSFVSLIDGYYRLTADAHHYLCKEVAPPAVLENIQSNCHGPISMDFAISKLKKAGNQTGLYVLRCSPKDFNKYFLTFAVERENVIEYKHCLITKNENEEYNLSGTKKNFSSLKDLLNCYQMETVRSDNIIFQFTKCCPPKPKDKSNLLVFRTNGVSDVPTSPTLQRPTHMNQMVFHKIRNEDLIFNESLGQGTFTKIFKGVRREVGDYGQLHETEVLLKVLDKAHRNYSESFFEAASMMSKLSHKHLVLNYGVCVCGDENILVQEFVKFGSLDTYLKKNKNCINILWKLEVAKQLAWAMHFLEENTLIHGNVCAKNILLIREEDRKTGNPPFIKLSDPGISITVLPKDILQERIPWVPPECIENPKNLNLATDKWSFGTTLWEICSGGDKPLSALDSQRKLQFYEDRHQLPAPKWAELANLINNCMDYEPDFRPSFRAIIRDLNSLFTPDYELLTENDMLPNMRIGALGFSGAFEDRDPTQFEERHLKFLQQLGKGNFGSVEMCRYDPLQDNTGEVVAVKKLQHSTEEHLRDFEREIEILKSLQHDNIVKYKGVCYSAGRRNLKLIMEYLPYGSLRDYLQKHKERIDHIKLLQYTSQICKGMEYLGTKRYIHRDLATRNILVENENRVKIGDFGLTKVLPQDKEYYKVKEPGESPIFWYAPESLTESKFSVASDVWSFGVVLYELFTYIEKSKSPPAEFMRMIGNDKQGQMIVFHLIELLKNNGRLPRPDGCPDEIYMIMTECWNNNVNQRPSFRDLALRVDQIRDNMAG
Summary of the method: as §1

TYK2, sequence (P29597 whole entry): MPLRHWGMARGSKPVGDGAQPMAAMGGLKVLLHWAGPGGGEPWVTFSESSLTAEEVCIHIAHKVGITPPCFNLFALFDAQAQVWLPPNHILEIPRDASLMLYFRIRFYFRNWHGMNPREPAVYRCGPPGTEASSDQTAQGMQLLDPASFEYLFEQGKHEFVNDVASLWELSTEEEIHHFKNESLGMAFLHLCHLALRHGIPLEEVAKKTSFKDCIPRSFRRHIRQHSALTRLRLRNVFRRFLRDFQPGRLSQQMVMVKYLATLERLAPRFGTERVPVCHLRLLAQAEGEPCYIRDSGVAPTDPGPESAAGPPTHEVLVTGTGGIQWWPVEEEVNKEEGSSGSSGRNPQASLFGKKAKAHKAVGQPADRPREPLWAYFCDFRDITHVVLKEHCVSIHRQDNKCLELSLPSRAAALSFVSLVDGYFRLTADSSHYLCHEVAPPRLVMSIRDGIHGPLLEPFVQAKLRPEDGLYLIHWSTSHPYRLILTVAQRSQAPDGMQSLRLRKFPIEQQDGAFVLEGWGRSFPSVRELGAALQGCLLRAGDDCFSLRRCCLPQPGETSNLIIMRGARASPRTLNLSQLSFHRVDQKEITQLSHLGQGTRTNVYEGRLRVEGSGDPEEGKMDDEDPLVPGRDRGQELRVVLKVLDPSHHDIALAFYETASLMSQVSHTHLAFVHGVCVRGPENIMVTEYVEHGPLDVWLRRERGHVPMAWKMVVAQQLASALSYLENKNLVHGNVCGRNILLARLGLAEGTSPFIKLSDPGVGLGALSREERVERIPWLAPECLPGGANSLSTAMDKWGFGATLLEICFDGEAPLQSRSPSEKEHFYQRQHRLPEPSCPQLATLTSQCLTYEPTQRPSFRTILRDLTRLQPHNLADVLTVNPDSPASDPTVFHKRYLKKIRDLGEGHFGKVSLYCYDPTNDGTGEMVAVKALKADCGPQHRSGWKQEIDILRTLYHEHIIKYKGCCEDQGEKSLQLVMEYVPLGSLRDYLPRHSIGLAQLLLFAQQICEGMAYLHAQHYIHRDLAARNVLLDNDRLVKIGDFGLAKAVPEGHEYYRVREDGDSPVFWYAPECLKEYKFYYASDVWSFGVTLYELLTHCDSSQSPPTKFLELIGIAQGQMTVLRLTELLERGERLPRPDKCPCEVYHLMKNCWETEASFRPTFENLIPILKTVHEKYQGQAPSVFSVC

Compound	IC50 (TYK2) [nM]	IC50 (JAK 3) [nM]	IC50 (JAK 1) [nM]	IC50 (JAK 2) [nM]
COc1cc(CNS(C)(=O)=O)ccc1-n1nc(NCCN2CCCCC2)c2cnc(-c3cnn4cccnc34)cc21 [Example 54, N-(3-methoxy-4-(3-((2-(piperidin-1-yl)ethyl)amino)-6-(pyrazolo[1,5-a]pyrimidin-3-yl)-1H-pyrazolo[4,3-c]pyridin-1-yl)benzyl)methanesulfonamide]	5.01 to 50.1	5.01 to 50.1	5.01 to 50.1	≤ 5.01
CNc1nn(-c2ccc(CNS(C)(=O)=O)cc2OC)c2cc(-c3cnn4cccnc34)ncc12 [Example 55, N-(3-methoxy-4-(3-(methylamino)-6-(pyrazolo[1,5-a]pyrimidin-3-yl)-1H-pyrazolo[4,3-c]pyridin-1-yl)benzyl)methanesulfonamide]	5.01 to 50.1	≤ 5.01	≤ 5.01	≤ 5.01
COc1cc(CNS(C)(=O)=O)ccc1-n1nc(NCCN(C)C)c2cnc(-c3cnn4cccnc34)cc21 [Example 56, N-(4-(3-((2-(dimethylamino)ethyl)amino)-6-(pyrazolo[1,5-a]pyrimidin-3-yl)-1H-pyrazolo[4,3-c]pyridin-1-yl)-3-methoxybenzyl)methanesulfonamide]	5.01 to 50.1	≤ 5.01	≤ 5.01	≤ 5.01
CNc1nn(-c2cc(Cl)c(CNS(C)(=O)=O)cc2OC)c2cc(-c3cnn4cccnc34)ncc12 [Example 57, N-(2-chloro-5-methoxy-4-(3-(methylamino)-6-(pyrazolo[1,5-a]pyrimidin-3-yl)-1H-pyrazolo[4,3-c]pyridin-1-yl)benzyl)methanesulfonamide]	5.01 to 50.1	≤ 5.01	≤ 5.01	≤ 5.01
COc1cc(CNS(C)(=O)=O)c(Cl)cc1-n1nc(NCCN2CCOCC2)c2cnc(-c3cnn4cccnc34)cc21 [Example 58, N-(2-chloro-5-methoxy-4-(3-((2-morpholinoethyl)amino)-6-(pyrazolo[1,5-a]pyrimidin-3-yl)-1H-pyrazolo[4,3-c]pyridin-1-yl)benzyl)methanesulfonamide]	5.01 to 50.1	5.01 to 50.1	≤ 5.01	5.01 to 50.1
COc1cc(CNS(C)(=O)=O)ccc1-n1nc(C(=O)NCCCN(C)C)c2cnc(-c3cnn4cccnc34)cc21 [Example 59, N-(3-(dimethylamino)propyl)-1-(2-methoxy-4-(methylsulfonamidomethyl)phenyl)-6-(pyrazolo[1,5-a]pyrimidin-3-yl)-1H-pyrazolo[4,3-c]pyridine-3-carboxamide]	5.01 to 50.1	5.01 to 50.1	≤ 5.01	5.01 to 50.1
COc1cc(CNS(C)(=O)=O)ccc1-n1nc(CC#N)c2cnc(-c3cnn4cccnc34)cc21 [Example 60, N-(4-(3-(cyanomethyl)-6-(pyrazolo[1,5-a]pyrimidin-3-yl)-1H-pyrazolo[4,3-c]pyridin-1-yl)-3-methoxybenzyl)methanesulfonamide]	5.01 to 50.1	≤ 5.01	≤ 5.01	≤ 5.01
Cc1nn(-c2ccc(CNS(C)(=O)=O)cc2OC(F)F)c2cc(-c3cnn4cccnc34)ncc12 [Example 61, N-(3-(difluoromethoxy)-4-(3-methyl-6-(pyrazolo[1,5-a]pyrimidin-3-yl)-1H-pyrazolo[4,3-c]pyridin-1-yl)benzyl)methanesulfonamide]	5.01 to 50.1	≤ 5.01	≤ 5.01	≤ 5.01
COc1cc(C(C)NS(C)(=O)=O)ccc1-n1nc(C)c2cnc(-c3cnn4cccnc34)cc21 (stereo not drawn) [Example 62, N-(1-(3-methoxy-4-(3-methyl-6-(pyrazolo[1,5-a]pyrimidin-3-yl)-1H-pyrazolo[4,3-c]pyridin-1-yl)phenyl)ethyl)methanesulfonamide]	> 50.1	≤ 5.01	≤ 5.01	≤ 5.01
